This passage reports KA results from ChEMBL document CHEMBL1152017, “Peptide-binding antibiotics: A solid-phase assay for screening libraries of vancomycin mimics for selective d-Ala-d-Ala binding” (Bioorg Med Chem Lett, 1997).

The test in a line: The compound was tested for binding constant against d-Ala-d-Ala termini on bacterial cell surface.
`C[C@H](NC(=O)CNS(=O)(=O)c1cccc2c(N(C)C)cccc12)C(=O)N[C@H](C)C(=O)O` gave a KA of 16 mM⁻¹.

With `C[C@H](NC(=O)CNS(=O)(=O)c1cccc2c(N(C)C)cccc12)C(=O)O[C@H](C)C(=O)O`, the KA is below 0.02 mM⁻¹.

As for `C[C@@H](NC(=O)[C@@H](C)NC(=O)CNS(=O)(=O)c1cccc2c(N(C)C)cccc12)C(=O)O`, the KA turned out to be 1.3 mM⁻¹.

The molecule `C[C@H](NC(=O)[C@H](C)NC(=O)CNS(=O)(=O)c1cccc2c(N(C)C)cccc12)C(=O)O` gave a KA of 1.1 mM⁻¹.
